Like-named read-outs stand apart in the source and are kept apart here.
Legend:
[1] = Figure 1 summary data; cited from earlier work
[2] = Figure 1 summary data; cited from earlier work; remark: listed apart in the source
Pharmacokinetics in rats = format: in vivo; conditions: rat, hydrochloride salt

Row | Vd (Pharmacokinetics in rats; in vivo, iv 4.5 mg/kg) [L/kg] | half-life (Pharmacokinetics in rats; in vivo, iv 4.5 mg/kg, read-out: iv t1/2 (converted)) [h] | clearance (Pharmacokinetics in rats; plasma, iv 4.5 mg/kg, read-out: plasma Cl) [mL/min/kg] | oral BA (Pharmacokinetics in rats; po 21 mg/kg, iv […]) [%] | clearance (Pharmacokinetics in rats; whole blood, iv 4.5 mg/kg, read-out: blood Cl) [mL/min/kg] | Structure (SMILES) | HLM % rem at 40 min [1] [%] | MLM % rem at 30 min [2] [%]
1 | – | – | – | – | – | CC(C)CCNc1ccc(-c2cnc3ccc(NC4CCN(C)CC4)nn23)cn1 [Compound 1] | 85 | 63
2 | 8 | 4 | 28 | 70 | 14 | CN1CCC(Nc2ccc3ncc(-c4ccc(Nc5ncccc5F)cc4)n3n2)CC1 [Compound 35, 3-{4-[(3-Fluoropyridin-2-yl)amino]phenyl}-N-(1-methylpiperidin-4-yl)imidazo[1,2-b]pyridazin-6-amine] | – | –

— publication PMC4024065, “Optimization of an Imidazopyridazine Series of Inhibitors of Plasmodium falciparum Calcium-Dependent Protein Kinase 1 (PfCDPK1)” (Journal of Medicinal Chemistry, 2014)
